What is called CC50 is the concentration at which the toxic effect on the cells reaches its halfway point. Read a low CC50 as harm at low concentration. One may read the EC50 as the concentration that produces a half-maximal response. Usually inhibition stands for the change of the read-out against control, counted positive when it falls.

Here are results for six compounds from ChEMBL document CHEMBL4680307, “Potent leads based on CA-19L, an anti-HIV active HIV-1 capsid fragment” (Bioorg Med Chem, 2021).

Series [1] can be described thus: Cytotoxicity against in human MT-4 after 5 days by MTT assay. Type of series: cell-based, MT4. The note with it: MT-4 cells, time 5 day. In general terms: Tetrazolium dyes change colour on reduction, which living cells bring about.
In series [2] the test system is Human immunodeficiency virus 1. Put plainly: Antiviral activity against HIV-1 NL4-3 in human MT-4 cells assessed as virus induced cytopathic effect incubated for 5 days by MTT assay. Type of series: functional, organism-based. Conditions: Human immunodeficiency virus 1, NL4-3, MT4, 120 h. For orientation: Protection from cytopathic effect is a common read-out in antiviral testing.

Series [3] concerns Human immunodeficiency virus 1. Briefly: Antiviral activity against HIV-1 NL(AD8) in human PM1/CCR5 cells assessed as virus induced cytopathic effect incubated for 5 days by MTT assay. It is filed as functional, organism-based. The note with it: Human immunodeficiency virus 1, NL(AD8), PM1/CCR5, 120 h.
For series [4], the system named is Human immunodeficiency virus 1. Briefly: Antiviral activity against HIV-1 NL(AD8) in human PM1/CCR5 cells assessed as virus induced cytopathic effect at 50 uM incubated for 5 days by MTT assay. Type of series: functional. Conditions: Human immunodeficiency virus 1, NL(AD8), PM1/CCR5, 120 h, time 5 day.
For series [5], the system named is Human immunodeficiency virus 1. Briefly: Antiviral activity against HIV-1 NL4-3 in human MT-4 cells assessed as virus induced cytopathic effect at 25 uM incubated for 5 days by MTT assay. Conditions: Human immunodeficiency virus 1, NL4-3, MT4, 120 h, time 5 day. It is filed as functional.

In series [1], `CC[C@H](C)[C@H](NC(=O)[C@@H](NC(=O)[C@H](CCCCN)NC(=O)[C@H](CO)NC(=O)[C@H](CC(=O)O)NC(=O)[C@@H]1CCCN1C(=O)[C@H](CC(N)=O)NC(=O)[C@H](C)NC(=O)[C@H](CC(N)=O)NC(=O)[C@H](CCC(N)=O)NC(=O)[C@@H](NC(=O)[C@H](CC(C)C)NC(=O)[C@H](CC(C)C)NC(=O)[C@@H](NC(=O)[C@H](CCC(=O)O)NC(=O)[C@@H](NC(=O)[C@H](CCSC)NC(=O)[C@H](Cc1c[nH]c2ccccc12)NC(=O)[C@H](CC(N)=O)NC(=O)[C@H](CCCCN)NC(=O)[C@@H](NC(=O)[C@H](CCC(=O)O)NC(=O)[C@H](CCC(N)=O)NC(=O)[C@H](CO)NC(C)=O)C(C)C)[C@@H](C)O)[C@@H](C)O)C(C)C)[C@@H](C)O)C(=O)N[C@@H](CC(C)C)C(=O)N[C@@H](CCCCN)C(=O)N[C@@H](C)C(=O)N[C@@H](CC(C)C)C(=O)NCC(=O)N1CCC[C@H]1C(=O)NCC(=O)N[C@@H](C)C(=O)N[C@H](C(=O)NCC(=O)N[C@@H](CSCC(=O)N[C@@H](CCCNC(=N)N)C(=O)N[C@@H](CCCNC(=N)N)C(=O)N[C@@H](CCCNC(=N)N)C(=O)N[C@@H](CCCNC(=N)N)C(=O)N[C@@H](CCCNC(=N)N)C(=O)N[C@@H](CCCNC(=N)N)C(=O)N[C@@H](CCCNC(=N)N)C(=O)N[C@@H](CCCNC(=N)N)C(N)=O)C(N)=O)[C@@H](C)O` came in with a CC50 at 120 h of over 50 µM. In addition, the EC50 in series [2] was 22 µM; in series [3], 50 µM.

On to `CSCC[C@H](NC(=O)[C@H](Cc1c[nH]c2ccccc12)NC(=O)[C@H](CC(N)=O)NC(=O)[C@H](CCCCN)NC(=O)[C@@H](NC(C)=O)C(C)C)C(=O)N[C@H](C(=O)N[C@@H](CCC(=O)O)C(=O)N[C@H](C(=O)N[C@@H](CC(C)C)C(=O)N[C@@H](CC(C)C)C(=O)N[C@H](C(=O)N[C@@H](CCC(N)=O)C(=O)N[C@@H](CC(N)=O)C(=O)N[C@@H](C)C(=O)N[C@@H](CC(N)=O)C(=O)NCC(=O)N[C@@H](CSCC(=O)N[C@@H](CCCNC(=N)N)C(=O)N[C@@H](CCCNC(=N)N)C(=O)N[C@@H](CCCNC(=N)N)C(=O)N[C@@H](CCCNC(=N)N)C(=O)N[C@@H](CCCNC(=N)N)C(=O)N[C@@H](CCCNC(=N)N)C(=O)N[C@@H](CCCNC(=N)N)C(=O)N[C@@H](CCCNC(=N)N)C(N)=O)C(N)=O)C(C)C)[C@@H](C)O)[C@@H](C)O`, for which the CC50 at 120 h in series [1] was over 50 µM. The inhibition at 50 µM in series [4] came to 40%. The EC50 in series [2] is over 50 µM; in series [3], 50 µM. Further, the inhibition at 25 µM in series [5] was 27%.

In the case of `CC[C@H](C)[C@H](NC(=O)[C@@H](NC(=O)[C@H](CCCCN)NC(=O)[C@H](CO)NC(=O)[C@H](CC(=O)O)NC(=O)[C@@H]1CCCN1C(=O)[C@H](CC(N)=O)NC(=O)[C@H](C)NC(=O)[C@H](CC(N)=O)NC(=O)[C@H](CCC(N)=O)NC(=O)[C@@H](NC(=O)[C@H](CC(C)C)NC(=O)[C@H](CC(C)C)NC(=O)[C@@H](NC(=O)[C@H](CCC(=O)O)NC(=O)[C@@H](NC(=O)[C@H](CCSC)NC(=O)[C@H](Cc1c[nH]c2ccccc12)NC(=O)[C@H](CC(N)=O)NC(=O)[C@H](CCCCN)NC(=O)[C@@H](NC(=O)[C@H](CCC(=O)O)NC(=O)[C@H](CCC(N)=O)NC(=O)[C@H](CO)NC(C)=O)C(C)C)[C@@H](C)O)[C@@H](C)O)C(C)C)[C@@H](C)O)C(=O)N[C@@H](CC(C)C)C(=O)N[C@@H](CCCCN)C(=O)N[C@@H](C)C(=O)N[C@@H](CC(C)C)C(=O)NCC(=O)N[C@@H](CSCC(=O)N[C@@H](CCCNC(=N)N)C(=O)N[C@@H](CCCNC(=N)N)C(=O)N[C@@H](CCCNC(=N)N)C(=O)N[C@@H](CCCNC(=N)N)C(=O)N[C@@H](CCCNC(=N)N)C(=O)N[C@@H](CCCNC(=N)N)C(=O)N[C@@H](CCCNC(=N)N)C(=O)N[C@@H](CCCNC(=N)N)C(N)=O)C(N)=O`, the cytotoxic concentration (CC50) at 120 h in series [1] is 21 µM. The EC50 in series [2] is over 25 µM; in series [3] it was 50 µM. Moreover, the inhibition at 25 µM in series [5] is 39%.

As for `c1cc(CN2CCCNCCNCCCNCC2)ccc1CN1CCCNCCNCCCNCC1` [PLERIXAFOR], the cytotoxic concentration (CC50) at 120 h in series [1] was over 50 µM. Further, the results for the EC50 in series [2] and in series [3] were 0.049 µM and over 50 µM, respectively.

`COC[C@@H](c1ccc(C(F)(F)F)cc1)N1CCN(C2(C)CCN(C(=O)c3c(C)ncnc3C)CC2)C[C@@H]1C` [VICRIVIROC] displayed a half-maximal cytotoxic concentration (CC50) at 120 h in series [1] of over 5 µM. Moreover, the half-maximal effective concentration (EC50) in series [2] is over 5 µM; in series [3], 0.21 µM.

Consider `Cc1cn([C@H]2C[C@H](N=[N+]=[N-])[C@@H](CO)O2)c(=O)[nH]c1=O` [ZIDOVUDINE], for which, in series [1], the cytotoxic concentration (CC50) at 120 h was determined as 74 µM. In addition, the 50% effective concentration (EC50) was 0.094 µM in series [2] and 3.3 µM in series [3].
